Assay results as given in patent US20260374766A1, “METHODS FOR TREATING CANCER” (Antares Therapeutics, Inc., priority 2022, published 2026).
Each block holds one compound with its values, some of them ahead of it.

Key:
[1] = biological target: T1, p53 Y220C mutant protein (amino acid residues 94-293) (Homo sapiens, UniProt P04637, Y220C); assay: Surface Plasmon Resonance (SPR) assay, Kd_kinetic; type: binding; conditions: SPR, kinetic KD, p53 Y220C; read-out: SPR P53 Y220C KD kinetic
T1 construct: p53 Y220C mutant protein (amino acid residues 94-293)
Outline: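 Kd values come from fitting sensorgrams to a 1:1 binding model. Sensorgrams were recorded on a Biacore 8K at 16 or 20 °C in pH 7.5 Tris buffer with 100 mM NaCl, 1 mM DTT, detergents and 1% DMSO.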

NUGC3 p53 Y220C = assay: Cell Proliferation Assay (CellTiter-Glo, CTG), NUGC3 p53 Y220C; type: cell-based; conditions: Homo sapiens, NUGC-3, 120 h, CellTiter-Glo, NUGC3 p53 Y220C, 5 days
Outline: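 NClH1299 lines stably transduced with Tet-inducible p53 Y220C or R273H, plus NUGC3, were treated with compound for 5 days at 250-500 cells/well. IC50 derived from CellTiter-Glo luminescent signal after 10 min room-temperature incubation.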

H1299 p53 R273H = assay: Cell Proliferation Assay (CellTiter-Glo, CTG), H1299 p53 R273H (NClH1299-inducible p53 R273H); type: cell-based; conditions: Homo sapiens, NCI-H1299, 120 h, CellTiter-Glo, H1299 p53 R273H, 5 days
Outline: (§1)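 Tet-One inducible p53 Y220C or R273H constructs were stably introduced into NCI-H1299 by lentiviral transduction; NUGC3 was used as is. Cells (250-500 per well) were exposed to compound for 5 days, then CellTiter-Glo was added for 10 min at room temperature and IC50 was calculated from luminescence.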

H1299 p53 Y220C = assay: Cell Proliferation Assay (CellTiter-Glo, CTG), H1299 p53 Y220C (NClH1299-inducible p53 Y220C); type: cell-based; conditions: Homo sapiens, NCI-H1299, 120 h, CellTiter-Glo, H1299 p53 Y220C, 5 days
Outline: as §1

[2] = biological target: T1, p53 Y220C mutant protein (amino acid residues 94-293); assay: Thermal Shift Assay (TSA), dTM; type: binding; conditions: thermal shift; for ΔTm at 100 µM: 100 uM compound, read-out: TSA P53 Y220C dTM (100 uM)
Protocol: Thermal Shift Assay (TSA) Protocol
5 μM recombinant p53 Y220C mutant protein (amino acid residues 94-293) was incubated with 10 μM or 100 μM compound for 3 hours at 20 °C in buffer containing 20 mM HEPES, pH7.4, 100 mM NaCl, 0.01% Pluronic F-127, and 1% DMSO in the presence of 400-fold diluted Sypro Orange (ThermoFisher Scientific catalog number 4461146), on a 384-well PCR plate (Applied Biosystems catalog number 4483285). The volume was 5 μL/well. The sealed plate was then loaded onto a QuantStudio 7 Flex instrument for melting temperature (TM) measurement. The temperature was increased from 30 °C to […], at a rate of 0.03 °C/second. Data were fit into a Boltzmann two-state model to determine the TM.

p53 Y220C = p53 Y220C (Homo sapiens, UniProt P04637, Y220C); assay: Luciferase Reporter Assay (Luc), p53 response element, NClH1299 cells with inducible p53 Y220C; type: cell-based; conditions: luciferase reporter, NClH1299 inducible p53 Y220C, 6 hour; for Emax: 10 uM tool compound as positive control; for AC50: read-out: Luc P53 Y220C AC50
Outline: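 Steps: seed 5,000 cells/well; induce mutant p53 with 0.5 ug/mL doxycycline for 24 h; treat with compound 6 h; add equal volume One-Glo, shake 5 min at room temperature; measure luciferase immediately.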

Structure (SMILES): COC[C@H](O)CN1CCC(Nc2cccn3c(CC(F)(F)F)c(C#CCNc4ccc(S(C)(=O)=O)cc4OC)nc23)CC1 [Example 14, (2R)-1-{4-[(2-{3-[(4-methanesulfonyl-2-methoxyphenyl)amino]prop-1-yn-1-yl}-3-(2,2,2-trifluoroethyl)imidazo[1,2-a]pyridin-8-yl)amino]piperidin-1-yl}-3-methoxypropan-2-ol]
Kd [1]: 0.01 to 0.1 µM
IC50 (NUGC3 p53 Y220C): 0.75 to 1.5 µM
IC50 (H1299 p53 R273H): 5 to 8 µM
IC50 (H1299 p53 Y220C): 0.75 to 1.5 µM
ΔTm at 100 µM [2]: ≥ 10 °C
Emax (p53 Y220C): 70 to 80%
AC50 (p53 Y220C): 1.5 to 3 µM

Structure (SMILES): CCc1c(C#CCNc2ccc(S(C)(=O)=O)cc2OC)nc2c(N[C@@H]3CCN(C)C[C@@H]3F)cccn12 [Example 15, (3S,4R)—N-(3-ethyl-2-{3-[(4-methanesulfonyl-2-methoxyphenyl)amino]prop-1-yn-1-yl}imidazo[1,2-a]pyridin-8-yl)-3-fluoro-1-methylpiperidin-4-amine]
Kd [1]: 0.01 to 0.1 µM
IC50 (NUGC3 p53 Y220C): 1.5 to 3 µM
IC50 (H1299 p53 R273H): 8 to 10 µM
IC50 (H1299 p53 Y220C): 1.5 to 3 µM
ΔTm at 100 µM [2]: 5 to 10 °C
Emax (p53 Y220C): < 70%
AC50 (p53 Y220C): 1.5 to 3 µM

Structure (SMILES): CCc1c(C#CCNc2ccc(S(C)(=O)=O)cc2OC)nc2c(NC3CCN(C)CC3)cccn12 [Example 16, N-(3-ethyl-2-{3-[(4-methanesulfonyl-2-methoxyphenyl)amino]prop-1-yn-1-yl}imidazo[1,2-a]pyridin-8-yl)-1-methylpiperidin-4-amine]
Kd [1]: 0.01 to 0.1 µM
IC50 (NUGC3 p53 Y220C): > 3 µM
IC50 (H1299 p53 R273H): 5 to 8 µM
IC50 (H1299 p53 Y220C): > 3 µM
ΔTm at 100 µM [2]: 5 to 10 °C
Emax (p53 Y220C): < 70%
AC50 (p53 Y220C): > 3 µM

Structure (SMILES): CCOc1c(C#CCNc2ccc(C(=O)NC)cc2OC)nc2c(N[C@@H]3CCN(C)C[C@@H]3F)cccn12 [Example 17, 4-{[3-(3-ethoxy-8-{[(3S,4R)-3-fluoro-1-methylpiperidin-4-yl]amino}imidazo[1,2-a]pyridin-2-yl)prop-2-yn-1-yl]amino}-3-methoxy-N-methylbenzamide]
Kd [1]: 0.1 to 1 µM
IC50 (NUGC3 p53 Y220C): > 3 µM
IC50 (H1299 p53 R273H): ≥ 10 µM
IC50 (H1299 p53 Y220C): > 3 µM
ΔTm at 100 µM [2]: 1 to 5 °C
Emax (p53 Y220C): < 70%
AC50 (p53 Y220C): > 3 µM

Structure (SMILES): CC#Cc1nn2c(N[C@@H]3CCN(C)C[C@@H]3F)cccc2c1CC(F)(F)F [Example 20, (3S,4R)-3-fluoro-1-methyl-N-[2-(prop-1-yn-1-yl)-3-(2,2,2-trifluoroethyl)pyrazolo[1,5-a]pyridin-7-yl]piperidin-4-amine]
Kd [1]: 0.01 to 0.1 µM
IC50 (NUGC3 p53 Y220C): > 3 µM
IC50 (H1299 p53 R273H): ≥ 10 µM
IC50 (H1299 p53 Y220C): > 3 µM
ΔTm at 100 µM [2]: 5 to 10 °C
Emax (p53 Y220C): < 70%
AC50 (p53 Y220C): > 3 µM

Structure (SMILES): CNC(=O)c1ccc(NCC#Cc2nc3c(N[C@@H]4CCN(C)C[C@@H]4F)cccn3c2NC)c(OC)c1 [Example 25, 4-{[3-(8-{[(3S,4R)-3-fluoro-1-methylpiperidin-4-yl]amino}-3-(methylamino)imidazo[1,2-a]pyridin-2-yl)prop-2-yn-1-yl]amino}-3-methoxy-N-methylbenzamide]
Kd [1]: 0.1 to 1 µM
IC50 (NUGC3 p53 Y220C): > 3 µM
IC50 (H1299 p53 R273H): ≥ 10 µM
IC50 (H1299 p53 Y220C): > 3 µM
ΔTm at 100 µM [2]: 5 to 10 °C
Emax (p53 Y220C): < 70%
AC50 (p53 Y220C): > 3 µM

Second part, led by results:

Kd [1]: 0.01 to 0.1 µM
IC50 (H1299 p53 R273H): ≥ 10 µM
IC50 (H1299 p53 Y220C): > 3 µM
ΔTm at 100 µM [2]: 5 to 10 °C
Emax (p53 Y220C): < 70%
AC50 (p53 Y220C): > 3 µM
Structure (SMILES): COc1cc(S(C)(=O)=O)ccc1NCC#Cc1nc2c(NC3CCS(=O)(=O)CC3)cccn2c1CC(F)(F)F [Example 4, 4-[(2-{3-[(4-methanesulfonyl-2-methoxyphenyl)amino]prop-1-yn-1-yl}-3-(2,2,2-trifluoroethyl)imidazo[1,2-a]pyridin-8-yl)amino]-1lambda6-thiane-1,1-dione]
IC50 (NUGC3 p53 Y220C): 1.5 to 3 µM

Kd [1]: 0.01 to 0.1 µM
IC50 (H1299 p53 R273H): ≥ 10 µM
IC50 (H1299 p53 Y220C): > 3 µM
ΔTm at 10 µM ([2]; 10 uM compound, read-out: TSA P53 Y220C dTM (10 uM)): 5 to 10 °C
ΔTm at 100 µM [2]: 5 to 10 °C
Emax (p53 Y220C): 80 to 90%
AC50 (p53 Y220C): > 3 µM
Structure (SMILES): COc1cc(S(C)(=O)=O)ccc1NCC#Cc1nc2c(NC3CCN(CCS(C)(=O)=O)CC3)cccn2c1CC(F)(F)F [Example 5, N-(2-{3-[(4-methanesulfonyl-2-methoxyphenyl)amino]prop-1-yn-1-yl}-3-(2,2,2-trifluoroethyl)imidazo[1,2-a]pyridin-8-yl)-1-(2-methanesulfonylethyl) piperidin-4-amine]
IC50 (NUGC3 p53 Y220C): 1.5 to 3 µM

Kd [1]: 0.01 to 0.1 µM
IC50 (H1299 p53 R273H): ≥ 10 µM
IC50 (H1299 p53 Y220C): 1.5 to 3 µM
ΔTm at 100 µM [2]: ≥ 10 °C
Emax (p53 Y220C): 70 to 80%
AC50 (p53 Y220C): 1.5 to 3 µM
Structure (SMILES): COc1cc(S(C)(=O)=O)ccc1NCC#Cc1nc2c(N[C@H]3CCN(C)C[C@H]3F)cccn2c1CC(F)(F)F [Example 6, (3R,4S)-3-fluoro-N-(2-{3-[(4-methanesulfonyl-2-methoxyphenyl)amino]prop-1-yn-1-yl}-3-(2,2,2-trifluoroethyl)imidazo[1,2-a]pyridin-8-yl)-1-methylpiperidin-4-amine]
IC50 (NUGC3 p53 Y220C): 1.5 to 3 µM

Kd [1]: 0.01 to 0.1 µM
IC50 (H1299 p53 R273H): 5 to 8 µM
IC50 (H1299 p53 Y220C): 1.5 to 3 µM
ΔTm at 100 µM [2]: 5 to 10 °C
Emax (p53 Y220C): < 70%
AC50 (p53 Y220C): > 3 µM
Structure (SMILES): COc1cc(S(C)(=O)=O)ccc1NCC#Cc1nc2c(NC3CCN(C4CC4)CC3)cccn2c1CC(F)(F)F [Example 7, 1-cyclopropyl-N-(2-{3-[(4-methanesulfonyl-2-methoxyphenyl)amino]prop-1-yn-1-yl}-3-(2,2,2-trifluoroethyl)imidazo[1,2-a]pyridin-8-yl)piperidin-4-amine]
IC50 (NUGC3 p53 Y220C): 1.5 to 3 µM

Kd [1]: < 0.01 µM
IC50 (H1299 p53 R273H): 5 to 8 µM
IC50 (H1299 p53 Y220C): 0.75 to 1.5 µM
ΔTm at 100 µM [2]: ≥ 10 °C
Emax (p53 Y220C): 70 to 80%
AC50 (p53 Y220C): 0.75 to 1.5 µM
Structure (SMILES): COc1cc(S(C)(=O)=O)ccc1NCC#Cc1nc2c(N[C@@H]3CCNC[C@@H]3F)cccn2c1CC(F)(F)F [Example 8, (3S,4R)-3-fluoro-N-(2-{3-[(4-methanesulfonyl-2-methoxyphenyl)amino]prop-1-yn-1-yl}-3-(2,2,2-trifluoroethyl)imidazo[1,2-a]pyridin-8-yl)piperidin-4-amine]
IC50 (NUGC3 p53 Y220C): 0.75 to 1.5 µM

Kd [1]: 0.01 to 0.1 µM
IC50 (H1299 p53 R273H): 5 to 8 µM
IC50 (H1299 p53 Y220C): 1.5 to 3 µM
ΔTm at 100 µM [2]: ≥ 10 °C
Emax (p53 Y220C): 70 to 80%
AC50 (p53 Y220C): 1.5 to 3 µM
Structure (SMILES): COc1cc(S(C)(=O)=O)ccc1NCC#Cc1nc2c(NC3CCN(C(C)C)CC3)cccn2c1CC(F)(F)F [Example 9, 1-isopropyl-N-(2-{3-[(4-methanesulfonyl-2-methoxyphenyl)amino]prop-1-yn-1-yl}-3-(2,2,2-trifluoroethyl)imidazo[1,2-a]pyridin-8-yl)piperidin-4-amine]
IC50 (NUGC3 p53 Y220C): 1.5 to 3 µM

Kd [1]: 0.01 to 0.1 µM
IC50 (H1299 p53 R273H): 5 to 8 µM
IC50 (H1299 p53 Y220C): 0.75 to 1.5 µM
ΔTm at 100 µM [2]: ≥ 10 °C
Emax (p53 Y220C): 70 to 80%
AC50 (p53 Y220C): 1.5 to 3 µM
Structure (SMILES): COc1cc(S(C)(=O)=O)ccc1NCC#Cc1nc2c(NC3CCN(CC(C)(C)O)CC3)cccn2c1CC(F)(F)F [Example 11, 1-{4-[(2-{3-[(4-methanesulfonyl-2-methoxyphenyl)amino]prop-1-yn-1-yl}-3-(2,2,2-trifluoroethyl)imidazo [1,2-a]pyridin-8-yl)amino]piperidin-1-yl}-2-methylpropan-2-ol]
IC50 (NUGC3 p53 Y220C): 1.5 to 3 µM

Kd [1]: 0.01 to 0.1 µM
IC50 (H1299 p53 R273H): ≥ 10 µM
IC50 (H1299 p53 Y220C): 1.5 to 3 µM
ΔTm at 100 µM [2]: ≥ 10 °C
Emax (p53 Y220C): 70 to 80%
AC50 (p53 Y220C): 1.5 to 3 µM
Structure (SMILES): COC[C@@H](O)CN1CCC(Nc2cccn3c(CC(F)(F)F)c(C#CCNc4ccc(S(C)(=O)=O)cc4OC)nc23)CC1 [Example 12, (2S)-1-{4-[(2-{3-[(4-methanesulfonyl-2-methoxyphenyl)amino]prop-1-yn-1-yl}-3-(2,2,2-trifluoroethyl)imidazo[1,2-a]pyridin-8-yl)amino]piperidin-1-yl}-3-methoxypropan-2-ol]
IC50 (NUGC3 p53 Y220C): 0.75 to 1.5 µM
